How the values were obtained:
Assay type in all cases: in vivo
[1] = test system: barnyardgrass (Echinochloa crus-galli); assay: Test G Pre-Emergence Protocol; settings: Echinochloa crus-galli, pre-emergence, 312 h, evaluated after 13 days
In short: (§1)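 Under a 24/16° C day/night regime with 14 h light and 65% humidity, sown pots were sprayed after one day with compound (15.625, 62.5 or 250 g/ha; 50:50 acetone/water, 0.5% Tween 20). Damage was assessed visually 13 days later, 0 to 100.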

corn (Zea mays) [2] = assay: Test G Pre-Emergence Protocol; settings: Zea mays, pre-emergence, 312 h, evaluated after 13 days
In short: as §1

[3] = test system: giant foxtail (Setaria faberi); assay: Test G Pre-Emergence Protocol; settings: Setaria faberi, pre-emergence, 312 h, evaluated after 13 days
In short: as §1

[4] = test system: ivy-leaved morning glory (Ipomoea hederacea); assay: Test G Pre-Emergence Protocol; settings: Ipomoea, pre-emergence, 312 h, evaluated after 13 days
In short: as §1

[5] = test system: redroot pigweed (Amaranthus retroflexus); assay: Test G Pre-Emergence Protocol; settings: Amaranthus retroflexus, pre-emergence, 312 h, evaluated after 13 days
In short: as §1

[6] = test system: velvetleaf (Abutilon theophrasti); assay: Test G Pre-Emergence Protocol; settings: Abutilon theophrasti, pre-emergence, 312 h, evaluated after 13 days
In short: as §1

[7] = test system: barnyardgrass (Echinochloa crus-galli); assay: Test G Post-Emergence Protocol; settings: Echinochloa crus-galli, post-emergence, 312 h
In short: (§2)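 A glasshouse post-emergence test: 8-day-old plants sprayed at 15.625, 62.5 or 250 g/ha, then grown at 24/16 °C day/night with 14 h light and 65% humidity. Damage rated 13 days later, 0–100.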

corn (Zea mays) [8] = assay: Test G Post-Emergence Protocol; settings: Zea mays, post-emergence, 312 h
In short: as §2

[9] = test system: giant foxtail (Setaria faberi); assay: Test G Post-Emergence Protocol; settings: Setaria faberi, post-emergence, 312 h
In short: as §2

[10] = test system: ivy-leaved morning glory (Ipomoea hederacea); assay: Test G Post-Emergence Protocol; settings: Ipomoea, post-emergence, 312 h
In short: as §2

[11] = test system: redroot pigweed (Amaranthus retroflexus); assay: Test G Post-Emergence Protocol; settings: Amaranthus retroflexus, post-emergence, 312 h
In short: as §2

[12] = test system: velvetleaf (Abutilon theophrasti); assay: Test G Post-Emergence Protocol; settings: Abutilon theophrasti, post-emergence, 312 h
In short: as §2

## CN1C[C@@H](c2ccc(C(F)(F)F)cc2)[C@H](C(=O)Nc2ccnc(Cl)n2)C1=O (racemic) [Compound 1544]
[1]; 15.625 g ai/ha, read-out: Barnyard grass damage rating (100=total damage to plant; 0=no damage to plant)
  pest or weed control at 15.625 g/ha: 0%
[1]; 62.5 g ai/ha, 100=total damage to plant, 0=no damage to plant, read-out: plant damage rating, Barnyardgrass
  pest or weed control at 62.5 g/ha: 0%
[1]; 250 g ai/ha, read-out: Barnyardgrass damage rating (100=total damage to plant; 0=no damage to plant)
  pest or weed control at 250 g/ha: 0%
Corn (Zea mays) [2]; 15.625 g ai/ha, read-out: Corn damage rating (100=total damage to plant; 0=no damage to plant)
  plant injury at 15.625 g/ha: 0%
Corn (Zea mays) [2]; 62.5 g ai/ha, 100=total damage to plant, 0=no damage to plant, read-out: plant damage rating, Corn
  plant injury at 62.5 g/ha: 0%
Corn (Zea mays) [2]; 250 g ai/ha, read-out: Corn damage rating (100=total damage to plant; 0=no damage to plant)
  plant injury at 250 g/ha: 0%
[3]; 15.625 g ai/ha, read-out: Foxtail, Giant damage rating (100=total damage to plant; 0=no damage to plant)
  pest or weed control at 15.625 g/ha: 0%
[3]; 62.5 g ai/ha, 100=total damage to plant, 0=no damage to plant, read-out: plant damage rating, Foxtail, Giant
  pest or weed control at 62.5 g/ha: 0%
[3]; 250 g ai/ha, read-out: Foxtail, Giant damage rating (100=total damage to plant; 0=no damage to plant)
  pest or weed control at 250 g/ha: 0%
[4]; 15.625 g ai/ha, read-out: Morning-glory, Ivy-leaved damage rating (100=total damage to plant; 0=no damage to plant)
  pest or weed control at 15.625 g/ha: 0%
[4]; 62.5 g ai/ha, 100=total damage to plant, 0=no damage to plant, read-out: plant damage rating, Morningglory, Ivy-leaved
  pest or weed control at 62.5 g/ha: 0%
[4]; 250 g ai/ha, read-out: Morningglory, Ivy-leaved damage rating (100=total damage to plant; 0=no damage to plant)
  pest or weed control at 250 g/ha: 0%
[5]; 15.625 g ai/ha, read-out: Pigweed, Redroot damage rating (100=total damage to plant; 0=no damage to plant)
  pest or weed control at 15.625 g/ha: 0%
[5]; 62.5 g ai/ha, 100=total damage to plant, 0=no damage to plant, read-out: plant damage rating, Pigweed, Redroot
  pest or weed control at 62.5 g/ha: 0%
[5]; 250 g ai/ha, read-out: Pigweed, Redroot damage rating (100=total damage to plant; 0=no damage to plant)
  pest or weed control at 250 g/ha: 0%
[6]; 15.625 g ai/ha, read-out: Velvetleaf damage rating (100=total damage to plant; 0=no damage to plant)
  pest or weed control at 15.625 g/ha: 0%
[6]; 62.5 g ai/ha, 100=total damage to plant, 0=no damage to plant, read-out: plant damage rating, Velvetleaf
  pest or weed control at 62.5 g/ha: 0%
[6]; 250 g ai/ha, read-out: Velvetleaf damage rating (100=total damage to plant; 0=no damage to plant)
  pest or weed control at 250 g/ha: 0%
[7]; 15.625 g ai/ha, evaluated after 13 days (100=total damage to plant; 0=no damage to plant), read-out: Barnyardgrass damage rating
  pest or weed control at 15.625 g/ha: 0%
[7]; 62.5 g ai/ha, evaluated after 13 days, read-out: Barnyardgrass damage rating (100=total damage to plant; 0=no damage to plant)
  pest or weed control at 62.5 g/ha: 0%
[7]; 250 g ai/ha, evaluated after 13 days, read-out: damage to plant, Barnyardgrass (100=total damage to plant; 0=no damage to plant)
  pest or weed control at 250 g/ha: 0%
Corn (Zea mays) [8]; 15.625 g ai/ha, evaluated after 13 days (100=total damage to plant; 0=no damage to plant), read-out: Corn damage rating
  plant injury at 15.625 g/ha: 10%
Corn (Zea mays) [8]; 62.5 g ai/ha, evaluated after 13 days, read-out: Corn damage rating (100=total damage to plant; 0=no damage to plant)
  plant injury at 62.5 g/ha: 10%
Corn (Zea mays) [8]; 250 g ai/ha, evaluated after 13 days, read-out: damage to plant, Corn (100=total damage to plant; 0=no damage to plant)
  plant injury at 250 g/ha: 10%
[9]; 15.625 g ai/ha, evaluated after 13 days (100=total damage to plant; 0=no damage to plant), read-out: Foxtail, Giant damage rating
  pest or weed control at 15.625 g/ha: 0%
[9]; 62.5 g ai/ha, evaluated after 13 days, read-out: Foxtail, Giant damage rating (100=total damage to plant; 0=no damage to plant)
  pest or weed control at 62.5 g/ha: 0%
[9]; 250 g ai/ha, evaluated after 13 days, read-out: damage to plant, Foxtail, Giant (100=total damage to plant; 0=no damage to plant)
  pest or weed control at 250 g/ha: 0%
[10]; 15.625 g ai/ha, evaluated after 13 days (100=total damage to plant; 0=no damage to plant), read-out: Morningglory, Ivy-leaved damage rating
  pest or weed control at 15.625 g/ha: 0%
[10]; 62.5 g ai/ha, evaluated after 13 days, read-out: Morningglory, Ivy-leaved damage rating (100=total damage to plant; 0=no damage to plant)
  pest or weed control at 62.5 g/ha: 0%
[10]; 250 g ai/ha, evaluated after 13 days, read-out: damage to plant, Morningglory, Ivy-leaved (100=total damage to plant; 0=no damage to plant)
  pest or weed control at 250 g/ha: 0%
[11]; 15.625 g ai/ha, evaluated after 13 days (100=total damage to plant; 0=no damage to plant), read-out: Pigweed, Redroot damage rating
  pest or weed control at 15.625 g/ha: 0%
[11]; 62.5 g ai/ha, evaluated after 13 days, read-out: Pigweed, Redroot damage rating (100=total damage to plant; 0=no damage to plant)
  pest or weed control at 62.5 g/ha: 0%
[11]; 250 g ai/ha, evaluated after 13 days, read-out: damage to plant, Pigweed, Redroot (100=total damage to plant; 0=no damage to plant)
  pest or weed control at 250 g/ha: 0%
[12]; 15.625 g ai/ha, evaluated after 13 days (100=total damage to plant; 0=no damage to plant), read-out: Velvetleaf damage rating
  pest or weed control at 15.625 g/ha: 0%
[12]; 62.5 g ai/ha, evaluated after 13 days, read-out: Velvetleaf damage rating (100=total damage to plant; 0=no damage to plant)
  pest or weed control at 62.5 g/ha: 0%
[12]; 250 g ai/ha, evaluated after 13 days, read-out: damage to plant, Velvetleaf (100=total damage to plant; 0=no damage to plant)
  pest or weed control at 250 g/ha: 0%

Source: patent publication US12077503B2, “Substituted cyclic amides and their use as herbicides” (FMC CORPORATION, priority 2015, dated 2024)
